Assay results: paper PMC8313326, “Phytochemical Analysis and Evaluation of Biological Activity of Lawsonia inermis Seeds Related to Alzheimer's Disease” (Evidence-based Complementary and Alternative Medicine : eCAM, 2021)
Where two headings read alike, the source gives them in different places.

Experiments:
[1] = target: T1, acetylcholinesterase (AChE, E.C. 3.1.1.7, Type V-S) (Electrophorus electricus, UniProt O42275); assay: biochemical
T1 construct: Type V-S, lyophilized powder, from electric eel; purchased Sigma-Aldrich; host or cells: electric eel
T1 sequence (O42275 24-633): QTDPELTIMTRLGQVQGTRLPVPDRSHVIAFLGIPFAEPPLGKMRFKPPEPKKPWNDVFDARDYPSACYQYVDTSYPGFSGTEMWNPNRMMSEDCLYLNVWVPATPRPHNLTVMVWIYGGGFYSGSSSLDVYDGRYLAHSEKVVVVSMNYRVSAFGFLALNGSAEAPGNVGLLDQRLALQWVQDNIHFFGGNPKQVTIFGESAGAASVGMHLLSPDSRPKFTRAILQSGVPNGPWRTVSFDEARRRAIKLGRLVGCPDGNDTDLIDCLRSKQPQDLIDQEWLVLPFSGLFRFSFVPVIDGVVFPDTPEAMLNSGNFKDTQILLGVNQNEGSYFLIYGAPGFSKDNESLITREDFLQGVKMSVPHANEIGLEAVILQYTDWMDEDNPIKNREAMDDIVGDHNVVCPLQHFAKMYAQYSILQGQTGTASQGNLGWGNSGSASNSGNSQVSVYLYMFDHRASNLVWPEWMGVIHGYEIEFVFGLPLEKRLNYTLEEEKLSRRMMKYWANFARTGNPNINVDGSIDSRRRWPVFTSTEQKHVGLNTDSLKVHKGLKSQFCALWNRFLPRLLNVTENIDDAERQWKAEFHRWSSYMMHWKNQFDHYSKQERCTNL
From the text: (§1) Acetylcholinesterase (AChE, E.C. 3.1.1.7, Type V-S, lyophilized powder, from electric eel, 1000 units), butyrylcholinesterase (BChE, E.C. 3.1.1.8, from equine serum), acetylthiocholine iodide (ATCI), and 5,5-dithiobis-2-nitrobenzoic acid (DTNB) were purchased from Sigma-Aldrich. Potassium dihydrogen phosphate, dipotassium hydrogen phosphate, potassium hydroxide, and sodium hydrogen carbonate were obtained from Fluka. Solvents for the extraction and column chromatography (CC) were of technical grade and redistilled before use. Deuterated solvents (100 atom % D) were obtained from Sigma-Aldrich.
(§2) In vitro anti-ChEI activity was performed against acetylcholinesterase (AChE, E.C. 3.1.1.7, Type V-S, lyophilized powder, from electric eel, 1000 units) and butyrylcholinesterase (BChE, E.C. 3.1.1.8, from equine serum) using the modified Ellman's method. […] Each well consisted of 50 μL potassium phosphate buffer (KH2PO4/K2HPO4, 0.1 M, pH 8), 25 μL prepared sample as described above, and AChE enzyme (25 μL) with a final concentration of 0.22 units/mL in the buffer. They were preincubated for 15 min at room temperature, and then, 125 μL DTNB (3 mM in buffer) was added to the mixture. […] In parallel, a blank containing all components without enzyme was used in order to account for the nonenzymatic reaction. […] The IC50 values were determined graphically from log concentration vs. % of inhibition curves. All experiments were performed in triplicate. BChE inhibition assay was performed in the same method.

[2] = target: T2, butyrylcholinesterase (BChE, E.C. 3.1.1.8) (Equus caballus, UniProt P81908); assay: biochemical
T2 construct: butyrylcholinesterase (BChE, E.C. 3.1.1.8, from equine serum); purchased Sigma-Aldrich; host or cells: equine serum
T2 sequence (P81908 whole entry): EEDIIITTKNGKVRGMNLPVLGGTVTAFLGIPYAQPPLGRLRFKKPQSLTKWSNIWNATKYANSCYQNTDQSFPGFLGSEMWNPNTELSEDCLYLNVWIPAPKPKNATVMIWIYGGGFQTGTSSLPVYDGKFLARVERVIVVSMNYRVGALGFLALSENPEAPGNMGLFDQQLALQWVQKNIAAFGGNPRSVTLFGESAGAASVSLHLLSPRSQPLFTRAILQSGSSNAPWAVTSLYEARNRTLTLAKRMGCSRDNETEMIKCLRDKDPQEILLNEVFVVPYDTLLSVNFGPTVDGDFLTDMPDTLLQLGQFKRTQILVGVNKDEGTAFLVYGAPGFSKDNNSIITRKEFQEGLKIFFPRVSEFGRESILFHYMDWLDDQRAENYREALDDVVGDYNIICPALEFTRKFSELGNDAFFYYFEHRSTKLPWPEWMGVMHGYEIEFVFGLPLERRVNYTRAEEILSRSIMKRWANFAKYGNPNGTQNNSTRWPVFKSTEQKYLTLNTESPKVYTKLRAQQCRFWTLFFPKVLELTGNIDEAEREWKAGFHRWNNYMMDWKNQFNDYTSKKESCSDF
From the text: as §1, §2

BChE = tested on: BChE; parameters: method as in PMID 24354178; conditions: cited from earlier work
[3] = Antioxidant activity by DPPH test; conditions: 30 min, room temperature, dark, 517 nm
Procedure: Several concentrations of the test fraction in MeOH were prepared. Aliquots of different concentrations of the fraction (1 mL) were added to the DPPH methanolic solution (1.0 mL, 0.1 mM), and the mixtures were shaken vigorously and left for 30 min at room temperature in the dark.
In the same procedure, butylated hydroxyanisole (BHA) was used as the positive control. The DPPH radical scavenging activity of the fractions was expressed as IC50 (μg/mL), which is obtained from linear regression plot between concentrations of the test fractions and percent inhibitions.

acetylcholinesterase = conditions: cited from earlier work

`C=C(C)[C@@H]1CC[C@]2(C(=O)O)CC[C@]3(C)[C@H](CC[C@@H]4[C@@]5(C)CC[C@H](O)C(C)(C)[C@@H]5CC[C@]43C)[C@@H]12` [compound 4, Betulinic acid] gave an IC50 [1] greater than 100 µM and an IC50 [2] greater than 100 µM.
With `CC1(C)CC[C@]2(C(=O)O)CC[C@]3(C)C(=CC[C@@H]4[C@@]5(C)CC[C@H](O)C(C)(C)[C@@H]5CC[C@]43C)[C@@H]2C1` [compound 5, Oleanolic acid] the IC50 ([2]; BChE IC50, isolated compounds, mean ± SD, three independent experiments) was 72.2 ± 0.42 µM.
In the case of hydroperoxy-24-vinylcholesterol, the BChE inhibitory activity (BChE) is given as “selective BChE inhibitory activity”.
For `COc1ccc(O)c(C(C)(C)C)c1` [BHA, butylated hydroxyanisole], the “DPPH free radical scavenging IC50” value [3] was 3.79 ± 0.37 µg/mL.
`CC1(C)CC[C@]2(C(=O)O)CC[C@]3(C)C(=CCC4[C@@]5(C)CC[C@H](OC(=O)/C=C/c6ccc(O)cc6)C(C)(C)C5CC[C@]43C)C2C1` (stereo partly drawn) [compound 3, 3-O-(Z)-Coumaroyl oleanolic acid] gave an IC50 ([1]; isolated compounds, mean ± SD, three independent experiments, read-out: AChE IC50) greater than 100 µM and an IC50 ([2]; isolated compounds, mean ± SD, three independent experiments, read-out: BChE IC50) greater than 100 µM.
For `CN1CC[C@@]23C=C[C@H](O)C[C@@H]2Oc2c(O)ccc(c23)C1` [sanguinine], the “inhibitory activity against acetylcholinesterase” value (acetylcholinesterase) is listed as “significant inhibitory activity”.
For `COc1ccc2c3c1O[C@H]1C[C@@H](O)C=C[C@@]31CCN(C)C2` [galantamine], the “inhibitory activity against acetylcholinesterase” value (acetylcholinesterase) is listed as “significant inhibitory activity”.
`CC[C@H](CC[C@@H](C)[C@H]1CC[C@H]2[C@@H]3CC=C4C[C@@H](O)CC[C@]4(C)[C@H]3CC[C@]12C)C(C)C` [compound 1, β-Sitosterol] gave an IC50 [1] greater than 100 µM and an IC50 [2] greater than 100 µM.
In the case of `CNC(=O)Oc1ccc2c(c1)[C@]1(C)CCN(C)[C@@H]1N2C` [physostigmine], the “inhibitory activity against acetylcholinesterase” value (acetylcholinesterase) is given as “significant inhibitory activity”.
For `COc1ccc(C(C)=O)c(O)c1` [paeonol], the BChE inhibitory activity (BChE) is given as “selective BChE inhibitory activity”.
`CC(=O)O[C@H]1CC[C@@]2(C)C(CC[C@]3(C)C2CC=C2C4CC(C)(C)CC[C@]4(C(=O)O)CC[C@]23C)C1(C)C` (stereo partly drawn) [compound 2, 3-O-β-Acetyloleanolic acid] showed an IC50 [1] greater than 100 µM and an IC50 [2] of 77.13 ± 0.01 µM.
